# Data taken from patent publication US20230293475A1, “METHODS OF PROVIDING SO[…] TO SUBJECTS WITH IMPAIRED RENAL FUNCTION” (Axsome Malta Ltd., priority 2020, published 2023).
# Where two headings read alike, the source gives them in different places.
# Experiment: Phase 1 single-dose study, plasma PK of solriamfetol by level of renal function
# Assay type: in vivo, human
# Conditions: for AUCt, percent ratio (90% confidence interval) of geometric mean relative to Group 1 / AUC∞, percent ratio (90% confidence interval) of geometric mean relative to Group 1 / Cmax, percent ratio (90% confidence interval) of geometric mean relative to Group 1 / AUC(0-t) / AUC(0-inf) / Cmax / Vd/F / Tmax / half-life: single 75-mg dose; for AUC(0-t) / AUC(0-inf) / Cmax / Vd/F / Tmax / half-life: both sexes, human, plasma, oral, 75 mg; for Vd/F: read-out: Vd/F, mean ± SD (%CV); for Tmax: read-out: tmax, median (min, max); for half-life: read-out: t½, mean ± SD (%CV) (converted)
# Method: In healthy subjects with normal renal function, solriamfetol HCl is renally excreted ~90% unchanged within 48 hours of administration. Thus, renal impairment, as well as hemodialysis in individuals with end-stage renal disease (ESRD), could affect the PK of solriamfetol HCl. To ascertain the precise impact of renal impairment and hemodialysis on pharmacokinetics and safety of solriamfetol RCl, a Phase 1, parallel-group, open-label, single-dose study was conducted at 2 U.S. sites. The protocol was approved by the IntegReview Institutional Review Board (Austin, Texas), and the study was conducted in compliance with the protocol, the Guideline for Good Clinical Practice E6; the US Code of Federal Regulations pertaining to conduct and reporting of clinical studies; the Clinical Trials Directive of the European Medicines Agency (Directive 2001/20/EC); and the Declaration of Helsinki. Written informed consent was obtained from each subject before enrollment in the study and before performance of any study-related procedure. See, also, Zomorodi K, Chen D, Lee L, Lasseter K, Marbury T. An Open-Label, Single-Dose, Phase 1 Study of the Pharmacokinetics and Safety of JZP-110 in Subjects With Normal or Impaired Renal Function and With End-Stage Renal Disease Requiring Hemodialysis [abstract]. Sleep. 2017;40 (suppl):A382-383.
# Eligible participants were men and non-pregnant, non-lactating women between the ages of 18 and 80 years, with a body mass index (BMI) ≤ 35 kg/m^2. Women of childbearing potential were required to have used a medically accepted method of birth control for at least 2 months prior to the first dose of study drug, with continued use throughout the study period and for 30 days after study completion.
# Eligible participants were assigned to 1 of 5 groups according to renal disease status as measured by the estimated glomerular filtration rate (eGFR) on the day prior to dosing, calculated using the Modification in Diet in Renal Disease equation. Group 1 consisted of healthy participants with normal renal function (eGFR ≥ 90 mL/min/1.73 m^2) and served as the control group. Groups 2, 3, and 4 had mild, moderate, and severe renal impairment based on eGFRs of 60-89, 30-59, and < 30 mL/min/1.73 m^2, respectively. Group 5 consisted of participants with ESRD who required ≥ 3 hemodialysis treatments per week for the preceding 3 months. […] Group 1 was enrolled last to facilitate matching the mean age, BMI, and sex distribution of Groups 2-5.
# Groups 1-4 received one dose of solriamfetol HCl (89.3 mg; equivalent to 75-mg solriamfetol) on day 1; Group 5 received one dose equivalent to 75-mg dose on day 1 followed by 4-hour hemodialysis (designated Group 5.2), and one dose equivalent to 75-mg solriamfetol on day 8 without hemodialysis (designated Group 5.1). All doses were administered on an empty stomach following an overnight fast except for participants in Group 5, who received a standardized snack on day 7 and breakfast early on day 8 before starting an 8-hour fast. Participants remained fasting for 4 hours after administration, with water allowed except for 1 hour before and after dosing.
# Serial blood samples of approximately 4 mL were collected within 30 minutes prior to dosing and at 0.5, 1, 1.5, 2, 2.5, 3, 4, 6, 8, 10, 12, 24, 36, and 48 hours post-dose in Groups 1-3, with continued sampling at 60 and 72 hours post-dose in Groups 4 and 5. All blood samples were collected into labeled K2EDTA tubes by direct venipuncture or indwelling catheter and kept on ice until the samples were centrifuged within 30 minutes of collection at approximately 2500 rpm (1315 × g) at 4° C. for 10 minutes. The plasma was transferred into polypropylene tubes for freezing and storage at -70° C. until analysis.
# Bioanalytical analyses were performed by a central laboratory (KCAS, LLC, Shawnee, Kansas) using validated proprietary methods that included extraction/derivatization and liquid chromatography-tandem mass spectrometry (LC-MS/MS). […]
# [1] = Group 3 moderate renal impairment
# [2] = Group 4 severe renal impairment
# [3] = Group 5.1 ESRD without hemodialysis
# [4] = Group 5.2 ESRD with hemodialysis
# [5] = Group 5.1 ESRD without hemodialysis, n=3
# [6] = Group 5.2 ESRD with hemodialysis, n=6
compound,measurement,setting,value
"NC(=O)OC[C@H](N)Cc1ccccc1 [solriamfetol, [R]-2-amino-3-phenylpropylcarbamate]","Cmax, lower relative to normal renal function",ESRD requiring hemodialysis,≤ 19%
same,"overall exposure, fold increase relative to normal renal function",ESRD requiring hemodialysis,≥ 4 fold
same,"t½, fold longer relative to normal renal function",ESRD requiring hemodialysis,≥ 13 fold
same,"Cmax, higher versus Group 1",Group 2 mild renal impairment,approximately 6%
same,"total exposure (AUC∞), higher relative to Group 1",Group 2 mild renal impairment,53%
same,"AUCt, percent ratio (90% confidence interval) of geometric mean relative to Group 1",Group 2 mild renal impairment,"158.3 (97.5, 256.9) %"
same,"AUC∞, percent ratio (90% confidence interval) of geometric mean relative to Group 1",Group 2 mild renal impairment,"152.9 (92.9, 251.7) %"
same,"Cmax, percent ratio (90% confidence interval) of geometric mean relative to Group 1",Group 2 mild renal impairment,"105.9 (80.6, 139.0) %"
same,"Cmax, higher versus Group 1",[1],~4%
same,"total exposure (AUC∞), higher relative to Group 1",[1],129%
same,"AUCt, percent ratio (90% confidence interval) of geometric mean relative to Group 1",[1],"219.2 (133.7, 359.6) %"
same,"AUC∞, percent ratio (90% confidence interval) of geometric mean relative to Group 1",[1],"229.2 (135.6, 387.4) %"
same,"Cmax, percent ratio (90% confidence interval) of geometric mean relative to Group 1",[1],"104.3 (78.4, 138.9) %"
same,"Cmax, higher versus Group 1",[2],~11%
same,"total exposure (AUC∞), higher relative to Group 1",[2],339%
same,"AUCt, percent ratio (90% confidence interval) of geometric mean relative to Group 1",[2],"380.4 (208.4, 694.4) %"
same,"AUC∞, percent ratio (90% confidence interval) of geometric mean relative to Group 1",[2],"438.6 (217.3, 885.3) %"
same,"Cmax, percent ratio (90% confidence interval) of geometric mean relative to Group 1",[2],"110.5 (81.1, 150.6) %"
same,"overall exposure (AUCt), fold higher relative to Group 1",Group 5.1 ESRD without dialysis on day 8,approximately 5 fold
same,"Cmax, lower versus Group 1",[3],approximately 3%
same,"exposure, higher versus Group 1",[3],approximately 518%
same,"AUCt, percent ratio (90% confidence interval) of geometric mean relative to Group 1",[3],"617.8 (385.3, 990.8) %"
same,"AUC∞, percent ratio (90% confidence interval) of geometric mean relative to Group 1",[3],"1290.6 (542.78, 3068.5) %"
same,"Cmax, percent ratio (90% confidence interval) of geometric mean relative to Group 1",[3],"97.2 (76.1, 124.1) %"
same,"overall exposure (AUCt), fold higher relative to Group 1",Group 5.2 ESRD with dialysis on day 1,about 4 fold
same,"Cmax, lower versus Group 1",[4],~19%
same,"exposure, higher versus Group 1",[4],~357%
same,"AUCt, percent ratio (90% confidence interval) of geometric mean relative to Group 1",[4],"457.2 (296.6, 704.9) %"
same,"AUC∞, percent ratio (90% confidence interval) of geometric mean relative to Group 1",[4],"1496.5 (748.7, 2991.2) %"
same,"Cmax, percent ratio (90% confidence interval) of geometric mean relative to Group 1",[4],"80.9 (63.4,103.1) %"
same,AUC(0-t),"Group 1 normal renal function, over 48 h, read-out: AUCt, mean ± SD (%CV)",4850 ± 3450 ng·h/mL
same,AUC(0-t),"Group 1 normal renal function, over 48 hours, read-out: AUCt, geometric LS mean (converted)",4090 ng·h/mL
same,AUC(0-inf),"Group 1 normal renal function, read-out: AUC∞, geometric LS mean",4360 ng·h/mL
same,AUC(0-inf),"Group 1 normal renal function, read-out: AUC∞, mean ± SD (%CV)",5270 ± 4100 ng·h/mL
same,Cmax,"Group 1 normal renal function, read-out: Cmax, geometric LS mean",482 ng/mL
same,Cmax,"Group 1 normal renal function, read-out: Cmax, mean ± SD (%CV)",499 ng/mL
same,Vd/F,Group 1 normal renal function,164 L
same,Tmax,Group 1 normal renal function,1.3 h
same,half-life,Group 1 normal renal function,7.6 ± 5.1 h
same,AUC(0-t),"Group 2 mild renal impairment, over 48 h, read-out: AUCt, mean ± SD (%CV)",6610 ng·h/mL
same,AUC(0-t),"Group 2 mild renal impairment, over 48 hours, read-out: AUCt, geometric LS mean (converted)",6470 ng·h/mL
same,AUC(0-inf),"Group 2 mild renal impairment, read-out: AUC∞, geometric LS mean",6670 ng·h/mL
same,AUC(0-inf),"Group 2 mild renal impairment, read-out: AUC∞, mean ± SD (%CV)",6840 ng·h/mL
same,Cmax,"Group 2 mild renal impairment, read-out: Cmax, geometric LS mean",510 ng/mL
same,Cmax,"Group 2 mild renal impairment, read-out: Cmax, mean ± SD (%CV)",522 ng/mL
same,Vd/F,Group 2 mild renal impairment,147 L
same,Tmax,Group 2 mild renal impairment,1.5 h
same,half-life,Group 2 mild renal impairment,9.1 ± 1.6 h
same,AUC(0-t),"Group 3 moderate renal impairment, over 48 h, read-out: AUCt, mean ± SD (%CV)",9230 ng·h/mL
same,AUC(0-t),"Group 3 moderate renal impairment, over 48 hours, read-out: AUCt, geometric LS mean (converted)",8960 ng·h/mL
same,AUC(0-inf),"Group 3 moderate renal impairment, read-out: AUC∞, geometric LS mean",10000 ng·h/mL
same,AUC(0-inf),"Group 3 moderate renal impairment, read-out: AUC∞, mean ± SD (%CV)",10500 ng·h/mL
same,Cmax,"Group 3 moderate renal impairment, read-out: Cmax, geometric LS mean",503 ng/mL
same,Cmax,"Group 3 moderate renal impairment, read-out: Cmax, mean ± SD (%CV)",517 ng/mL
same,Vd/F,[1],152 L
same,Tmax,[1],1.5 h
same,half-life,[1],14.3 ± 4.5 h
same,AUC(0-t),"Group 4 severe renal impairment, over 72 hours, read-out: AUCt, geometric LS mean (converted)",15500 ng·h/mL
same,AUC(0-inf),"Group 4 severe renal impairment, read-out: AUC∞, geometric LS mean",19100 ng·h/mL
same,AUC(0-inf),"Group 4 severe renal impairment, read-out: AUC∞, mean ± SD (%CV)",23600 ng·h/mL
same,Cmax,"Group 4 severe renal impairment, read-out: Cmax, geometric LS mean",533 ng/mL
same,Cmax,"Group 4 severe renal impairment, read-out: Cmax, mean ± SD (%CV)",553 ng/mL
same,Vd/F,[2],157 L
same,Tmax,[2],2 h
same,half-life,[2],29.6 ± 14.4 h
same,AUC(0-inf),"Group 5.1 ESRD without hemodialysis, n=3, read-out: AUC∞, geometric LS mean",56300 ng·h/mL
same,Vd/F,[5],154 L
same,half-life,[5],100 h
same,AUC(0-t),"Group 5.1 ESRD without hemodialysis, over 72 hours, read-out: AUCt, geometric LS mean (converted)",25300 ng·h/mL
same,Cmax,"Group 5.1 ESRD without hemodialysis, read-out: Cmax, geometric LS mean",469 ng/mL
same,Cmax,"Group 5.1 ESRD without hemodialysis, read-out: Cmax, mean ± SD (%CV)",474 ng/mL
same,Tmax,[3],3.3 h
same,AUC(0-inf),"Group 5.2 ESRD with hemodialysis, n=6, read-out: AUC∞, geometric LS mean",65300 ng·h/mL
same,Vd/F,[6],231 L
same,half-life,[6],165 h
same,AUC(0-t),"Group 5.2 ESRD with hemodialysis, over 72 hours, read-out: AUCt, geometric LS mean (converted)",18700 ng·h/mL
same,Cmax,"Group 5.2 ESRD with hemodialysis, read-out: Cmax, geometric LS mean",390 ng/mL
same,Cmax,"Group 5.2 ESRD with hemodialysis, read-out: Cmax, mean ± SD (%CV)",396 ng/mL
same,Tmax,[4],1.5 h
same,"AUC0-inf, fold compared with normal renal function",mild renal impairment,~1.53 fold
same,"t½, fold increase compared with normal renal function",mild renal impairment,approximately 1.2 fold
same,"AUC0-inf, fold compared with normal renal function",moderate renal impairment,~2.29 fold
same,"t½, fold increase compared with normal renal function",moderate renal impairment,~1.9 fold
same,"AUC0-inf, fold compared with normal renal function",severe renal impairment,~4.39 fold
same,"t½, fold increase compared with normal renal function",severe renal impairment,~3.9 fold
